Reference: patent US12661410B2, “Compounds for targeted degradation of RET” (C4 Therapeutics, Inc., priority 2020, dated 2026)
Numbering of substitutions follows the chain as printed. Read-outs that look alike come from different tables or passages of the source.

Tests used:
RET(KD: 658-1114 G810R) = biological target: T1, RET(KD: 658-1114 G810R) (Homo sapiens, UniProt P07949, G810R); assay: HiBiT-Degradation, RET G810R degradation assay (Nano-Glo HiBiT Lytic), 293T.165 cells; format: cell-based; conditions: for Emax / DC50: 6.0 hours; for Emax: % remaining protein, read-out: 293T.165 RET(KD: 658-1114 G810R) 6.0 hours (Emax); for DC50: read-out: 293T.165 RET(KD: 658-1114 G810R) 6.0 hours (DC50)
T1 construct: 658-1114; expressed in transfected cells; host or cells: 293T.165 (293T cells, generated in-house)
T1 sequence (P07949 658-1114 G810R): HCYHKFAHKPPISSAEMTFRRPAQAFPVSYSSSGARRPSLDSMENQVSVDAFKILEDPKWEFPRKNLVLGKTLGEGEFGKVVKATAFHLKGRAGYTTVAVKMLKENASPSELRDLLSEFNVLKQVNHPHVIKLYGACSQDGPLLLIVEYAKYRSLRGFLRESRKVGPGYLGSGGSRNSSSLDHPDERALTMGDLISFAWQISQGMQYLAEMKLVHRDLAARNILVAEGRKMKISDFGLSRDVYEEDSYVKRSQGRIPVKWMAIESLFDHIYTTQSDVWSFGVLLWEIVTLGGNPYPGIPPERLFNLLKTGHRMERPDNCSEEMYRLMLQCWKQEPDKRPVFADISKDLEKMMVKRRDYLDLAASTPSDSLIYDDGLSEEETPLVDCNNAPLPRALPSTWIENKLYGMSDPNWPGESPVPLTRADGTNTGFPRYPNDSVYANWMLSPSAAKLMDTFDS
Outline: (§1)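 Engineered 293T cells carry a HiBiT tag on the RET kinase domain, either wild type (line 293T.144) or G810R (line 293T.165). Compounds act for 6 h across a 10 μM-top, half-log 11-point range. Lytic HiBiT luminescence gives remaining protein, fitted for DC50 and Emax.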

RET (658-1114) = biological target: T2, RET (658-1114) (Homo sapiens, UniProt P07949); assay: HiBiT-Degradation, RET wild-type degradation assay (Nano-Glo HiBiT Lytic), 293T.144 cells; format: cell-based; conditions: for Emax / DC50: 6.0 hours; for Emax: read-out: 293T.144 RET (658-1114) 6.0 hours (Emax); for DC50: read-out: 293T.144 RET (658-1114) 6.0 hours (DC50)
T2 construct: 658-1114; expressed in transfected cells; host or cells: 293T.144 (293T cells, generated in-house)
T2 sequence (P07949 658-1114): T1 sequence (P07949 658-1114 G810R) with R153G
Outline: as §1

[1] = half-maximal degradation concentration

Structure (SMILES) | 293T.165 RET(KD: 658-1114 G810R) 6.0 hours (IP) [nM] (RET(KD: 658-1114 G810R)) | Emax (RET(KD: 658-1114 G810R)) | DC50 (RET(KD: 658-1114 G810R); [1]) | 293T.144 RET (658-1114) 6.0 hours (IP) [nM] (RET (658-1114)) | Emax (RET (658-1114); % remaining protein) | DC50 (RET (658-1114); [1]) | 293T.165 RET(KD: 658-1114 G810R) 6.0 hours (Emax) (RET(KD: 658-1114 G810R); HiBiT-Degradation) | 293T.165 RET(KD: 658-1114 G810R) 6.0 hours (IP) [nM] (RET(KD: 658-1114 G810R); HiBiT-Degradation) | DC50 (RET(KD: 658-1114 G810R); HiBiT-Degradation) | 293T.144 RET (658-1114) 6.0 hours (IP) [nM] (RET (658-1114); HiBiT-Degradation) | DC50 (RET (658-1114); HiBiT-Degradation) | Emax (RET (658-1114); HiBiT-Degradation)
Cn1nc(N2CCC(=O)NC2=O)c2cc(F)c(N3CCN([C@H]4CC[C@@H](n5cc(-c6cn7ncc(C#N)c7c(-c7ccc(N8C[C@H]9COC[C@@H](C8)N9Cc8ccc(=O)[nH]c8)nc7)n6)cn5)CC4)CC3)cc21 (single isomer, unassigned) [Compound 153] | ++++ (<50 nM = ++++) | < 30% | < 100 nM | ++++ (<50 nM = ++++) | < 30% | < 50 nM | – | – | – | – | – | –
CCC1(C(=O)NC(C)C)CCN(c2ccc(-c3cc(-c4cnn(C5CC6(C5)CN(C5CCN(c7ccc(NC8CCC(=O)NC8=O)cc7F)CC5)C6)c4)cn4ncc(C#N)c34)cn2)CC1 (centres unmarked) [Compound 199, 1-(5-(3-cyano-6-(1-(2-(1-(4-((2,6-dioxopiperidin-3-yl)amino)-2-fluorophenyl)piperidin-4-yl)-2-azaspiro[3.3]heptan-6-yl)-1H-pyrazol-4-yl)pyrazolo[1,5-a]pyridin-4-yl)pyridin-2-yl)-4-ethyl-N-isopropylpiperidine-4-carboxamide] | +++ (<100 nM = +++) | < 30% | < 50 nM | ++++ (<50 nM = ++++) | < 30% | < 50 nM | – | – | – | – | – | –
CCC1(C(=O)NC2CCC2)CCN(c2ccc(-c3nc(-c4cnn([C@H]5CC[C@H](N6CCN(c7c(F)cc(N[C@@H]8CCC(=O)NC8=O)cc7F)CC6)CC5)c4)cn4ncc(C#N)c34)cn2)CC1 (single isomer, unassigned) [Compound 137] | ++++ (<50 nM = ++++) | < 30% | < 50 nM | ++++ (<50 nM = ++++) | < 30% | < 50 nM | – | – | – | – | – | –
CCC1(C(=O)NC(C)C)CCN(c2ccc(-c3nc(-c4ccc(C5CCN(C(=O)CN6CC(c7ccc(NC8CCC(=O)NC8=O)cc7F)C6)CC5)cc4)cn4ncc(C#N)c34)cn2)CC1 (centres unmarked) [Compound 174, 1-[5-[3-cyano-6-[4-[1-[2-[3-[4-[(2,6-dioxo-3-piperidyl)amino]-2-fluoro-phenyl]azetidin-1-yl]acetyl]-4-piperidyl]phenyl]pyrazolo[1,5-a]pyrazin-4-yl]-2-pyridyl]-4-ethyl-N-isopropyl-piperidine-4-carboxamide] | ++++ (<50 nM = ++++) | < 50% | < 100 nM | ++++ (<50 nM = ++++) | < 30% | < 50 nM | – | – | – | – | – | –
N#Cc1cnn2cc(-c3ccc(N4CCN(C(=O)CN5CCC(c6ccc(NC7CCC(=O)NC7=O)cc6)CC5)CC4)cc3)cc(-c3ccc(N4CCC(Nc5ccccc5)CC4)nc3)c12 (centres unmarked) [Compound 20, 6-(4-(4-(2-(4-(4-((2,6-Dioxopiperidin-3-yl)amino)phenyl)piperidin-1-yl)acetyl)piperazin-1-yl)phenyl)-4-(6-(4-(phenylamino)piperidin-1-yl)pyridin-3-yl)pyrazolo[1,5-a]pyridine-3-carbonitrile] | – | < 30% | < 100 nM | – | – | – | ++++ (< 30% = ++++) | +++ (<100 nM = +++) | < 100 nM | ++++ (< 50 nM = ++++) | < 50 nM | < 30%
